# Measurements reported in patent publication US20150266864A1, “HETEROAROMATIC COMPOUNDS, METHOD FOR PREPARING THE COMPOUNDS, PHARMACEUTICAL COMPOSITIONS, USES AND METHOD FOR TREATING ACUTE AND CHRONIC PAIN” (CRISTÁLIA PRODUTOS QUÍMICOS FARMACÊUTICOS LTDA, priority 2012, published 2015).
# Key:
# rats subjected to SNL [1] = assay: Spinal nerve ligation (SNL) L5 model, mechanical allodynia (digital Von Frey); format: in vivo, rat
# Protocol: (§1) This experimental model was proposed by Kim and Chung [Kim, S. H.; Chung, J. M. Pain 1992, 50: 355-363] and consists of ligation of spinal nerves. Male Wistar rats, 180-220 g, were anesthetized with a mixture of ketamine and xylazine (60 mg/kg and 5 mg/kg, respectively) intraperitoneally. After the dorsal region asepsy, an incision was made between L5 and S1. The L6 transverse process was removed for locating the nerves L4 and L5, which were carefully isolated, and tight ligation of the L5 nerve with 6.0 silk thread was made, interrupting flow of the axon of the nerve. After this procedure, para-spinal muscles and skin were sutured, and then a topical antiseptic was applied. False operated animals (sham) were subjected to the same procedure, however the spinal nerve was not ligated.
# To evaluate the development of mechanical allodynia, digital analgesimeter (Model EFF301; Insight Equipments), digitalized version coupled to a pointed filament (Von Frey model variant) was used. This test aims to assess changes in tactile sensitivity in response to a mechanical stimulus as a result of a neural damage. The device consisted of a hand-held force transducer fitted with a sensor tip, through which a pressure with increasing strength is applied against the footpad of the animals hindpaw to assess the threshold of paw withdrawal, that is, the digital analgesimeter records the maximal strength, in grams (g), in which the animal withstands until the paw withdrawal reflex.
# Animals were placed in individual acrylic boxes and let to acclimate for 30 min before the beginning of the test. After this period, the thresholds of hindpaw withdrawal were determinded. For each hindpaw, five records of the withdrawal thresholds were made, and the average for each hindpaw was defined as the paw withdrawal threshold control.
# (§2) The treatment started on the 7th day after surgery. Compounds were diluted in water or DMSO and administered through intraperitoneal route on daily basis, during 7 days, at a dose of […]. The effectiveness of tested compounds was assessed on days 1, 3, and 7 days after treatment, always before the next administration of the compound. Latencies were also assessed on days 1, 3, and 7 after treatment interruption.
# (§3) Differences were considered significant when p<0.05.
# rats subjected to SNL [2] = assay: Spinal nerve ligation (SNL) L5 model, thermal hyperalgesia; format: in vivo, rat
# Protocol: as §1
# This method aims to evaluate the animal behavior in response to hyperalgesic phenomenon resulting from the injury induced by the ligament of spinal nerve (L5). In this regard, paw withdrawal in response to thermal stimulus was used, and the thermal stimulus was induced by the radiant heat of an incandescent lamp bulb. The paw withdrawal test was performed as described for the assessment of thermal hyperalgesia in the sciatic nerve chronic constrictive injury model.
# as §3, §2
# Swiss-type male mice = assay: RotaRod performance test, motor coordination; settings: for Mice residence time on the rotational cylinder: 9 rpm, cut off 180 s, mean ± SEM
# Protocol: The assessment of motor coordination in mice, by the rotarod performance test, was carried out to detect any possible sedative or muscle relaxant effect caused by the compounds of the present invention, previously tested in acute and neuropathic pain models. This test was carried out according to the method of described by Dunham & Miya and animal motor coordination was evaluated using RotaRod apparatus [Dunham M. S. & Miya. R. T. (1957). J. Amer. Pharmac. Assoc. Sci. Edit. 1957, 46, 208-209].
# The RotaRod apparatus (Model 412 EFF, Insight Equipements, Brazil) is a device that measures motor coordination and thus evaluates balance alterations in mice. The apparatus consists of an acrylic box splited into four compartments with a rotational cylinder among them. The cylinder rotates at constant speed driven by a motor and regulated to the constant speed mode of 5-37 revolutions per minute (rpm). In this study the speed was set up to 9 rpm.
# To remain on the rotational cylinder, the animal needs to move around, so that the motor coordination can be quantified. The four compartments have drop detection system, through the impact, a microprocessor circuit, for timing the permanence of the animal at the compartment, and for counting the number of falls.
# The day before the test, Swiss-type male mice (19-25 g) were placed on the rotational cylinder, set up to the constant speed mode of 9 rpm for adaptation and learning. A group of 10 mice were used for each tested compound, and the total period spent on the rotational cylinder (in seconds) was recorded for a period of 180 seconds (cut off time) and it was accept a maximum of three falls for each animal. Motor coordination was assessed at times 0 (before treatment), 15, 30, 60 and 120 minutes after compounds administration at a dose of 32.25 μmol/kg.
# All compounds were administered intraperitoneally (ip).
# The Student's t-test was also used to compare means between two experimental groups. Differences were considered significant when p<0.05.
# Swiss mice [3] = assay: Hot plate model, assay for acute pain; format: in vivo; settings: ip, 32.25 μmol/kg
# Swiss mice [4] = assay: Hot plate model, assay for acute pain; format: in vivo; settings: ip, 32.25 μmol/kg, plate 52° C., compared to morphine sulfate at the same dose
# Description: The antinociceptive activity (AA) of the present invention selected compounds (C3, C9, C11, C12, C13, C15 and C17) was investigated in hot plate model [Hot Plate Model LE7406, Scientific Inc.] described by Kuraishi et al. [Kuraishi, Y., Harada, Y., Aratani, S., Satoh, M., Takagi, H. Brain Research 1983.273, 245-2523]. This method is valid to evaluate the analgesic activity of substances acting on the central nervous system. Swiss mice weighing 20-25 g were placed on a metal plate heated up to 52° C. The animals were withdrawn from the hot plate at the time they lead their forepaws toward the mouth to lick, being this an indicative of pain second Le Bars et al. [Le Bars, D., Gozariu, M., Cadden, S. W. Animal models of nociception. Pharmacol. Rev. 2001, 53 (4), 597-652]. In this way, it was analyzed how long the animal, treated or not (control) with the analgesic substance, remained on the plate at 52° C.; the longest residence time of an animal on the plate was 35 seconds. This time limit (or cut off) (35 s) was determined by the average of three measurements of latency control values, obtained for each animal multiplied by three, to prevent any kind of tissue injury on the footpad of animals's paw due to long permanence on the heated surface. The protocol consisted in the intraperitoneal (ip) injection of the selected compounds of the present invention at a dose of 32.25 μmol/kg. The antinociceptive activity was evaluated at intervals of 10 minutes until effect completely disappear and, compared to morphine sulfate ([…]) at the same dose of 32.25 μmoles/kg (12.2 mg/kg). The investigated parameter is the latency of reflex to paw withdrawal in response to thermal stimulus. The results were expressed as percentage of AA, which was calculated according to Equation 1 for each experiment.
# [5] = ip during 7 days, 32.25 μmol/kg
# [6] = T 15 min after ip administration, 32.25 μmol/kg
# [7] = T 30 min after ip administration, 32.25 μmol/kg (diazepam 2 mg/kg)
# [8] = T 60 min after ip administration, 32.25 μmol/kg (diazepam 2 mg/kg)
# [9] = T 120 min after ip administration, 32.25 μmol/kg (diazepam 2 mg/kg)
SMILES,"paw withdrawal threshold, mechanical allodynia (rats subjected to SNL [1]; after 3 days of treatment, 32.25 μmol/kg ip, p<0.05)",reversal of allodynia signs associated with neuropathic pain (rats subjected to SNL [1]; [5]),reversal of hyperalgesia signs associated with neuropathic pain (rats subjected to SNL [2]; [5]),"increase on the latency vs control post-surgery (rats subjected to SNL [2]; since the 3rd day of treatment, 32.25 μmol/kg ip)","animal residence time on the rotational cylinder compared to controls (Swiss-type male mice; 15 minutes after administration, 32.25 μmol/kg)",Mice residence time on the rotational cylinder (Swiss-type male mice; [6]) [s],Mice residence time on the rotational cylinder (Swiss-type male mice; [7]) [s],Mice residence time on the rotational cylinder (Swiss-type male mice; [8]) [s],Mice residence time on the rotational cylinder (Swiss-type male mice; [9]) [s],side effects compared to morphine (Swiss mice [3]),"antinociceptive activity (AA), hot plate (Swiss mice [4])",melting point [°C]
"CCN1CCN(CCc2c[nH]nc2-c2ccc(F)cc2)CC1.Cl.Cl.Cl.O.O.O [C12, 1-ethyl-4-{2-[3-(4-fluorophenyl)-1H-pyrazol-4-yl]ethyl}piperazine trihydrochloride trihydrate]",significant (p<0.05) paw withdrawal threshold,effective in reverse the hyperalgesia and allodynia signs,effective in reverse the hyperalgesia and allodynia signs,statistically significant increase,"equal to the time observed for the negative control, and significantly higher than the time observed for the control amitriptyline hydrochloride",179.6,178.6,178.2,179.8,no side effects of conventional morphine,exhibit antinociceptive activity of intensity and kinetics similar to morphine sulfate,–
"OC1(c2ccc(Cl)cc2)CCN(CCc2c[nH]nc2-c2ccc(F)cc2)CC1 [C13, 4-(4-chlorophenyl)-1-{2-[3-(4-fluorophenyl)-1H-pyrazol-4-yl]ethyl}piperidin-4-ol]",–,–,–,–,–,100.9,95.5,143.7,152.4,no side effects of conventional morphine,exhibit antinociceptive activity of intensity and kinetics similar to morphine sulfate,142 to 144
